# Results from ChEMBL document CHEMBL1143045, “Tricyclic isoxazolines: identification of R226161 as a potential new antidepressant that combines potent serotonin reuptake inhibition and alpha2-adrenoceptor antagonism” (Bioorg Med Chem, 2007).
# Activity calls are given as the source filed them. The rule behind the calls is not given here.
# Experiments:
# [1] = biological target: T1, Alpha-2B adrenergic receptor (Homo sapiens, UniProt P18089); experiment: Displacement of [3H]rawolscine from human cloned adrenergic alpha-2B receptor transfected in CHO cells; type: cell-based
# T1 sequence (P18089 whole entry): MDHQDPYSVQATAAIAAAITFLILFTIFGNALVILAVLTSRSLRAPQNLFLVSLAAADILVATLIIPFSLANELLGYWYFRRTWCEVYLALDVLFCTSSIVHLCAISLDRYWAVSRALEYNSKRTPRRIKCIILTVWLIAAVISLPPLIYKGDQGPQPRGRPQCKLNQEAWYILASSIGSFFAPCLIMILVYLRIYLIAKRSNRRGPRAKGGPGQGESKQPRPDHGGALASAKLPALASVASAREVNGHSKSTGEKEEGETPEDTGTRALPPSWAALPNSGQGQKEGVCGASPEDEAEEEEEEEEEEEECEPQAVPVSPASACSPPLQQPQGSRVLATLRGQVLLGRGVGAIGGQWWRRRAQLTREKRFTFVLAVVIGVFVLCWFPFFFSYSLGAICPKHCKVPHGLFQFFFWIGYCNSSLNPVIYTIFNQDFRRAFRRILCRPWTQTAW
# [2] = biological target: T2, Alpha-2C adrenergic receptor (Homo sapiens, UniProt P18825); experiment: Displacement of [3H]rawolscine from human cloned adrenergic Alpha-2C receptor transfected in CHO cells; type: cell-based
# T2 sequence (P18825 whole entry): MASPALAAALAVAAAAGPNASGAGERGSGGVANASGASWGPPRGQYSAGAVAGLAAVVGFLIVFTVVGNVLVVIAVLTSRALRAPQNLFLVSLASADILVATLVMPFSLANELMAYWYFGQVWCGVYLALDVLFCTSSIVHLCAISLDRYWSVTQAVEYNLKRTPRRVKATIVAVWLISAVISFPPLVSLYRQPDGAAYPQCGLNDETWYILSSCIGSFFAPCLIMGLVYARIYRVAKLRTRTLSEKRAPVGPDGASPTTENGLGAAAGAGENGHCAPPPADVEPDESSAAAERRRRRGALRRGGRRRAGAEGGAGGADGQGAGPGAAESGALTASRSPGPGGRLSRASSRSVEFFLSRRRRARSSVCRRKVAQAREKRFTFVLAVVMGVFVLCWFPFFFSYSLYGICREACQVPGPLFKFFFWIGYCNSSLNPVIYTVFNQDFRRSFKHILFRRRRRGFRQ
# [3] = biological target: Sodium-dependent serotonin transporter (Homo sapiens, UniProt P31645); experiment: Displacement of [3H]paroxetine from human cloned 5HTT receptor transfected in CHO cells; type: cell-based
# Sequence of Sodium-dependent serotonin transporter (P31645 whole entry): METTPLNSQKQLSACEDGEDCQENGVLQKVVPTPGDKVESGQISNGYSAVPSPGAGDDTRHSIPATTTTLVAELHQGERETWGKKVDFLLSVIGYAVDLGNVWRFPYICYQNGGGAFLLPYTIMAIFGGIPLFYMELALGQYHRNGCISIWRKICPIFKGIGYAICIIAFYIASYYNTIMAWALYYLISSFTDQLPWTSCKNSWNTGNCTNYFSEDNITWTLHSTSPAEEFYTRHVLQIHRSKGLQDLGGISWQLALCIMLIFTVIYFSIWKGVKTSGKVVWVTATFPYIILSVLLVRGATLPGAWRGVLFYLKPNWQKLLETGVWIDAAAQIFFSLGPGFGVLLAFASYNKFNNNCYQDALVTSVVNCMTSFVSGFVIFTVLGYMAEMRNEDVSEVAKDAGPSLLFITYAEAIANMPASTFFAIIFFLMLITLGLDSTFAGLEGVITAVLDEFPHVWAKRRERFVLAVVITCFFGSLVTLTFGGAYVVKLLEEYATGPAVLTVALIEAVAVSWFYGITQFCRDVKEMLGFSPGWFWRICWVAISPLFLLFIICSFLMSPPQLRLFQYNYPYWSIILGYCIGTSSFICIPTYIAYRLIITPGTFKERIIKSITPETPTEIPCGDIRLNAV
# [4] = biological target: T3, Adrenergic receptor alpha-2 (Rattus norvegicus) (UniProt P22086+P19328+P22909); experiment: Reversal of medetomidine-induced loss of righting reflex in sc dosed Wistar rat after 1hr; type: functional, organism-based
# [5] = biological target: T3, Adrenergic receptor alpha-2 (Rattus norvegicus); experiment: Reversal of medetomidine-induced loss of righting reflex in po dosed Wistar rat after 1hr; type: functional, organism-based
# [6] = biological target: Sodium-dependent serotonin transporter (Rattus norvegicus) (UniProt P31652); experiment: Antagonism of p-chloroamphetamine-induced excitation in sc dosed Wistar rat after 1 hr; type: functional, organism-based
# Sequence of Sodium-dependent serotonin transporter (Rattus norvegicus) (P31652 whole entry): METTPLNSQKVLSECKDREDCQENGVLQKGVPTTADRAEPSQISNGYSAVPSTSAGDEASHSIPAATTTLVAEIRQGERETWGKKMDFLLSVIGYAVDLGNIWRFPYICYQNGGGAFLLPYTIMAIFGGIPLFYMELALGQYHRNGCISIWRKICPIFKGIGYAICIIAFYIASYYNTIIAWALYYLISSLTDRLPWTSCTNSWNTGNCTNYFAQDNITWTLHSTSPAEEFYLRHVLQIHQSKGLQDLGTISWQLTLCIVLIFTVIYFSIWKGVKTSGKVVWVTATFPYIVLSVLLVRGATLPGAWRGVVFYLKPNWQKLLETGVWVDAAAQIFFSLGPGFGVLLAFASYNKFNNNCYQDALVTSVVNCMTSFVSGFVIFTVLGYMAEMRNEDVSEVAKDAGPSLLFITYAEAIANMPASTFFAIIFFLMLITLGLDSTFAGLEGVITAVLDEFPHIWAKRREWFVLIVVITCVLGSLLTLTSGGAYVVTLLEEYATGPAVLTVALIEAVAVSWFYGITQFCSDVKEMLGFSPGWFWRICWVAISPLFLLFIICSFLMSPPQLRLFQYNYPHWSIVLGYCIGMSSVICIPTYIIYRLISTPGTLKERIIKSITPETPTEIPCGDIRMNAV
# [7] = biological target: Sodium-dependent serotonin transporter (Rattus norvegicus) (UniProt P31652); experiment: Antagonism of p-chloroamphetamine-induced excitation in po dosed Wistar rat after 1 hr; type: functional, organism-based
# [8] = biological target: Sodium-dependent serotonin transporter (Rattus norvegicus) (UniProt P31652); experiment: Antagonism of p-chloroamphetamine-induced 5HT depletion in sc dosed Wistar rat prefrontal cortex after 1 hr; type: functional, organism-based
# [9] = biological target: Sodium-dependent serotonin transporter (Rattus norvegicus) (UniProt P31652); experiment: Antagonism of p-chloroamphetamine-induced 5HT depletion in po dosed Wistar rat prefrontal cortex after 1 hr; type: functional, organism-based
# [10] = biological target: T4, Alpha-2A adrenergic receptor (Homo sapiens, UniProt P08913); experiment: Displacement of [3H]rawolscine from human cloned adrenergic alpha2A receptor transfected in CHO cells; type: cell-based
# T4 sequence (P08913 whole entry): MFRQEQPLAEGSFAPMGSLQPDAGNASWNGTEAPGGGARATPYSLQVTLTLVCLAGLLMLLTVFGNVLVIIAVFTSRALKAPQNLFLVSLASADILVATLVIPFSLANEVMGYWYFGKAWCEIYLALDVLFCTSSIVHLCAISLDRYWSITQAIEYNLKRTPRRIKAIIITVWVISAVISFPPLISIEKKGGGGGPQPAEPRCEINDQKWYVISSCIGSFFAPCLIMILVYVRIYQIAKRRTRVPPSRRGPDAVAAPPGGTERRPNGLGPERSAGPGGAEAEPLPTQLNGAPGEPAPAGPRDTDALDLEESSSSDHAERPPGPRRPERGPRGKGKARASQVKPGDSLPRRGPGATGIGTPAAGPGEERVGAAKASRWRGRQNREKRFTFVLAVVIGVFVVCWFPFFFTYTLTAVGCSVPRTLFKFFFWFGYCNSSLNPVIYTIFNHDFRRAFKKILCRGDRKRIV
# [11] = biological target: T5, Alpha-1A adrenergic receptor (Homo sapiens, UniProt P35348); experiment: Displacement of [3H]prazosin from human cloned alpha-1A receptor
# T5 sequence (P35348 whole entry): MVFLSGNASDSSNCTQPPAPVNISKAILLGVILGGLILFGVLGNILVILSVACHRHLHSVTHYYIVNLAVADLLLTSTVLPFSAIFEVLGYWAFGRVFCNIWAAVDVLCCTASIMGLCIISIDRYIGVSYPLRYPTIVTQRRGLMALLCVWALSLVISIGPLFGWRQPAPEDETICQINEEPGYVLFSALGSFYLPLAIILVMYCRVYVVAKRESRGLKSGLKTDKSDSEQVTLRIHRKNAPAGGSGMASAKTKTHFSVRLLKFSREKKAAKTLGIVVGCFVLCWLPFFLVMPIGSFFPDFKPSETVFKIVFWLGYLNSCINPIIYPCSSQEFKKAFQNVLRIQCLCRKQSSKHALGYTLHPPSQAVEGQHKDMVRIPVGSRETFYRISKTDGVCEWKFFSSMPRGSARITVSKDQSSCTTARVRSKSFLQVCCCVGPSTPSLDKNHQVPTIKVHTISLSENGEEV
# Histamine H1 receptor = Histamine H1 receptor (Homo sapiens, UniProt P35367); experiment: Displacement of [3H]pyrilamine from human cloned histamine H1 receptor
# Sequence of Histamine H1 receptor (P35367 whole entry): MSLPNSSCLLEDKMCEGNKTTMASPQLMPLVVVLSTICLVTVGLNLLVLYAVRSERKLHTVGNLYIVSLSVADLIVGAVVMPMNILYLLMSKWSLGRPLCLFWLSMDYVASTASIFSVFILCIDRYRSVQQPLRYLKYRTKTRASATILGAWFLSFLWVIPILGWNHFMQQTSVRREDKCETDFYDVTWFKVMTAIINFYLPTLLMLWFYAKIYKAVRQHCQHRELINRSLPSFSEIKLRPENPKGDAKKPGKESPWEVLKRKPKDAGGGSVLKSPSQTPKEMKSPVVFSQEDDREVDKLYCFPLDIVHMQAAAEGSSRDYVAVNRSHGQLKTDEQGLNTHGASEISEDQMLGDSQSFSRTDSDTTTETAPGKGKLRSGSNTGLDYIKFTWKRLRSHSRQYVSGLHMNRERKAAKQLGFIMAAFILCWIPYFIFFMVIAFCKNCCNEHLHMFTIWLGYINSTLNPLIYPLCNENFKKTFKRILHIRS
# D(3) dopamine receptor = D(3) dopamine receptor (Homo sapiens, UniProt P35462); experiment: Displacement of [125I]iodosulpiride from human cloned dopamine D3 receptor
# Sequence of D(3) dopamine receptor (P35462 whole entry): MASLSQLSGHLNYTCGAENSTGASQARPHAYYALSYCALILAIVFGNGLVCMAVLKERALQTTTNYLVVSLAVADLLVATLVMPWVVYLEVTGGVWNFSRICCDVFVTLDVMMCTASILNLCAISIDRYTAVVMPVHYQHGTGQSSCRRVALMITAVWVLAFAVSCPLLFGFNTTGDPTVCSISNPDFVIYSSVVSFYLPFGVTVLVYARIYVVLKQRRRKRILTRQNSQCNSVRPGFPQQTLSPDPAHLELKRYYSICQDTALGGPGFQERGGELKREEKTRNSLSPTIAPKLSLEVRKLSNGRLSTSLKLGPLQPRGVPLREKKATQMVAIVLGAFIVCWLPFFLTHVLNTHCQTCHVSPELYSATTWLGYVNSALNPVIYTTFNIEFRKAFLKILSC
# Substance-P receptor = Substance-P receptor (Homo sapiens, UniProt P25103); experiment: Displacement of [3H]substance P from human cloned NK1 receptor
# Sequence of Substance-P receptor (P25103 whole entry): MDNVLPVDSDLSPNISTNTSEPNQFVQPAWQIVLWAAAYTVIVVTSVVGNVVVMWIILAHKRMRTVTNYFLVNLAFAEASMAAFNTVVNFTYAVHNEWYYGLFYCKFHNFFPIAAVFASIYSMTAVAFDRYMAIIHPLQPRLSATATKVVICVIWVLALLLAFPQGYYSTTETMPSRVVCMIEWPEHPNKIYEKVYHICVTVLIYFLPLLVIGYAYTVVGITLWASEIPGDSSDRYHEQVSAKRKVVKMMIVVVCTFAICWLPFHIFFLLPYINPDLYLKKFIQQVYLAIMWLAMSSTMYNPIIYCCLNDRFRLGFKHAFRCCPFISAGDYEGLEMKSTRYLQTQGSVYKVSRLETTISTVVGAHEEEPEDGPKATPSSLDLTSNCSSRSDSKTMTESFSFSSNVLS
# [12] = biological target: Sodium-dependent dopamine transporter (Rattus norvegicus, UniProt P23977); experiment: Displacement of [3H]WIN-35428 from rat DAT
# Sequence of Sodium-dependent dopamine transporter (P23977 whole entry): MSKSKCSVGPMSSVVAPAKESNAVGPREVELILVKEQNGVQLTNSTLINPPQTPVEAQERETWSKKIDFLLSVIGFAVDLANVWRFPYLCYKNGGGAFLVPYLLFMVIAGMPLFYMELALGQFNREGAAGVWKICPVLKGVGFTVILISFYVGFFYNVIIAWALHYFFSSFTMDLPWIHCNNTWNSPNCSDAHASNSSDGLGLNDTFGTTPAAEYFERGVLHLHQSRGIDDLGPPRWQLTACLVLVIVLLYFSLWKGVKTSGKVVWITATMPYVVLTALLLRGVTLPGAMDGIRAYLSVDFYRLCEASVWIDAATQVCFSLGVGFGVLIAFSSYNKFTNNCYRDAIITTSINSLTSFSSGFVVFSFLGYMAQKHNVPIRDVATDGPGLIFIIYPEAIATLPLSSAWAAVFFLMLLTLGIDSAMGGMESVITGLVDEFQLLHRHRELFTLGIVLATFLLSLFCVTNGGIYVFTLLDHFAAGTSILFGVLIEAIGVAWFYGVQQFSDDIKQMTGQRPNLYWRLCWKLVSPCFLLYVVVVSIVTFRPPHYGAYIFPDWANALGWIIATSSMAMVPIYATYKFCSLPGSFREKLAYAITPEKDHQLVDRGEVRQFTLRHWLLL
# [13] = biological target: Norepinephrine transporter (Rattus norvegicus, UniProt Q9WTR4); experiment: Displacement of [3H]nisoxetine from rat NET
# Sequence of Norepinephrine transporter (Q9WTR4 whole entry): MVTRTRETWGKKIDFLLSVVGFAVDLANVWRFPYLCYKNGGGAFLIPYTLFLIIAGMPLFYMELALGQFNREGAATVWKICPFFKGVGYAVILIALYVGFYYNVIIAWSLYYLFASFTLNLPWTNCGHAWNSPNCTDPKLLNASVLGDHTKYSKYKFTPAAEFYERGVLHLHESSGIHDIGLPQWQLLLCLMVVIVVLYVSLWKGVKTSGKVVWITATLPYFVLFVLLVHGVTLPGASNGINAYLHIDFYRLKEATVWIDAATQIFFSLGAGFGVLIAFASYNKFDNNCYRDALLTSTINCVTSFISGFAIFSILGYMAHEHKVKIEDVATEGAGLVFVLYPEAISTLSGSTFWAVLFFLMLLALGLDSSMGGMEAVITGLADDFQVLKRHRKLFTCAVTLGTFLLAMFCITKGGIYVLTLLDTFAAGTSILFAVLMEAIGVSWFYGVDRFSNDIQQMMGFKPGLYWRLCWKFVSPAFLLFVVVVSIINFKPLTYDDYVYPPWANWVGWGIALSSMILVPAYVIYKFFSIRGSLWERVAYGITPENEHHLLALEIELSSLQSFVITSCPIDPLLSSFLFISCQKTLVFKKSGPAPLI
# [14] = biological target: T6, Alpha-2B adrenergic receptor (Homo sapiens) (UniProt P18089); experiment: Agonist activity at human adrenergic alpha-2B receptor transfected in CHO cells by [35S]GTPgammaS binding assay; type: functional, cell-based
# T6 sequence (whole entry): T1 sequence (P18089 whole entry)
# [15] = biological target: T7, Alpha-2C adrenergic receptor (Homo sapiens) (UniProt P18825); experiment: Agonist activity at human adrenergic Alpha-2C receptor transfected in CHO cells by [35S]GTPgammaS binding assay; type: functional, cell-based
# T7 sequence (whole entry): T2 sequence (P18825 whole entry)
# [16] = biological target: T6, Alpha-2B adrenergic receptor (Homo sapiens); experiment: Antagonist activity at human alpha-2B receptor transfected in CHO cells by [35S]GTPgammaS binding assay; type: functional, cell-based
# [17] = biological target: T7, Alpha-2C adrenergic receptor (Homo sapiens); experiment: Antagonist activity at human alpha-2C receptor transfected in CHO cells by [35S]GTPgammaS binding assay; type: functional, cell-based
# [18] = biological target: T3, Adrenergic receptor alpha-2 (Rattus norvegicus); experiment: Receptor occupancy ex vivo by displacement of [3H]idazoxan binding from alpha-2 adrenoceptor in sc dosed Wistar rat entorhinal cortex after 1 hr; type: functional, organism-based
# [19] = biological target: T3, Adrenergic receptor alpha-2 (Rattus norvegicus); experiment: Receptor occupancy ex vivo by displacement of [3H]idazoxan binding from alpha-2 adrenoceptor in po dosed Wistar rat entorhinal cortex after 1 hr; type: functional, organism-based
# [20] = biological target: T3, Adrenergic receptor alpha-2 (Rattus norvegicus); experiment: Reversal of medetomidine-induced loss of righting reflex in sc dosed Wistar rat after 0.5 hrs; type: functional, organism-based
# [21] = biological target: T3, Adrenergic receptor alpha-2 (Rattus norvegicus); experiment: Reversal of medetomidine-induced loss of righting reflex in sc dosed Wistar rat after 1 hr; type: functional, organism-based
# [22] = biological target: T3, Adrenergic receptor alpha-2 (Rattus norvegicus); experiment: Reversal of medetomidine-induced loss of righting reflex in sc dosed Wistar rat after 2 hrs; type: functional, organism-based
# [23] = biological target: T3, Adrenergic receptor alpha-2 (Rattus norvegicus); experiment: Reversal of medetomidine-induced loss of righting reflex in sc dosed Wistar rat after 4 hrs; type: functional, organism-based
# [24] = biological target: T3, Adrenergic receptor alpha-2 (Rattus norvegicus); experiment: Reversal of medetomidine-induced loss of righting reflex in sc dosed Wistar rat after 8 hrs; type: functional, organism-based
# [25] = biological target: T3, Adrenergic receptor alpha-2 (Rattus norvegicus); experiment: Reversal of medetomidine-induced loss of righting reflex in sc dosed Wistar rat after 16 hrs; type: functional, organism-based
# [26] = biological target: T3, Adrenergic receptor alpha-2 (Rattus norvegicus); experiment: Reversal of medetomidine-induced loss of righting reflex in sc dosed Wistar rat after 32 hrs; type: functional, organism-based
# [27] = biological target: T3, Adrenergic receptor alpha-2 (Rattus norvegicus); experiment: Reversal of medetomidine-induced loss of righting reflex in po dosed Wistar rat after 0.5 hrs; type: functional, organism-based
# [28] = biological target: T3, Adrenergic receptor alpha-2 (Rattus norvegicus); experiment: Reversal of medetomidine-induced loss of righting reflex in po dosed Wistar rat after 1 hr; type: functional, organism-based
# [29] = biological target: T3, Adrenergic receptor alpha-2 (Rattus norvegicus); experiment: Reversal of medetomidine-induced loss of righting reflex in po dosed Wistar rat after 2 hrs; type: functional, organism-based
# [30] = biological target: T3, Adrenergic receptor alpha-2 (Rattus norvegicus); experiment: Reversal of medetomidine-induced loss of righting reflex in po dosed Wistar rat after 4 hrs; type: functional, organism-based
# [31] = biological target: T3, Adrenergic receptor alpha-2 (Rattus norvegicus); experiment: Reversal of medetomidine-induced loss of righting reflex in po dosed Wistar rat after 8 hrs; type: functional, organism-based
# [32] = biological target: T3, Adrenergic receptor alpha-2 (Rattus norvegicus); experiment: Reversal of medetomidine-induced loss of righting reflex in po dosed Wistar rat after 16 hrs; type: functional, organism-based
structure (smiles),measurement,setting,value
"COc1cc2c(cc1OC)C1=NOC(CN3CCN(C/C(C)=C/c4ccccc4)CC3)C1CN2 (single isomer, unassigned; (+)) [listing 1 of 2 here]",Ki,[1],4.5 nM
same,Ki,[2],0.93 nM
same,Ki,[3],79 nM
"COc1cc2c(cc1OC)C1=NOC(CN3CCN(C/C(C)=C/c4ccccc4)CC3)C1CN2 (single isomer, unassigned; (+)) [listing 2 of 2 here]",ED50,[4],0.08 mg/kg
same,ED50,[5],0.63 mg/kg
same,ED50,[6],> 10 mg/kg
same,ED50,[7],> 10 mg/kg
same,ED50,[8],4.1 mg/kg
"COc1cc2c(cc1OC)C1=NOC(CN3CCN(C/C=C/c4ccc(F)cc4)CC3)C1CO2 (single isomer, unassigned; (+))",ED50,[4],3.1 mg/kg
same,ED50,[5],3.5 mg/kg
same,ED50,[6],0.05 mg/kg
same,ED50,[7],0.32 mg/kg
same,ED50,[8],0.03 mg/kg
same,ED50,[9],0.05 mg/kg
"COc1cc2c(cc1OC)C1=NOC(CN3CCN(C/C(C)=C/c4ccccc4)CC3)C1CN2 (single isomer, unassigned; (-)) [listing 1 of 2 here]",Ki,[1],26 nM
same,Ki,[2],8.3 nM
same,Ki,[3],24 nM
"COc1cc2c(cc1OC)C1=NOC(CN3CCN(C/C(C)=C/c4ccccc4)CC3)C1CN2 (single isomer, unassigned; (-)) [listing 2 of 2 here]",ED50,[4],> 10 mg/kg
same,ED50,[5],> 10 mg/kg
same,ED50,[6],0.32 mg/kg
same,ED50,[7],3.2 mg/kg
same,ED50,[8],0.81 mg/kg
COc1cc2c(cc1OC)C1=NO[C@@H](CN3CCN(C/C(C)=C/c4ccc(F)cc4)CC3)[C@@H]1CO2 (stereo in doubt; form 1) [listing 1 of 2 here],Ki,[10],3.1 nM
same,Ki,[1],1.5 nM
same,Ki,[2],0.27 nM
same,Ki,[11],125 nM
same,Ki,Histamine H1 receptor,74 nM
same,Ki,D(3) dopamine receptor,375 nM
same,Ki,Substance-P receptor,310 nM
same,Ki,[12],583 nM
same,Ki,[13],70 nM
COc1cc2c(cc1OC)C1=NO[C@@H](CN3CCN(C/C(C)=C/c4ccc(F)cc4)CC3)[C@@H]1CO2 (stereo in doubt; form 1) [listing 2 of 2 here],ED50,[4],2.7 mg/kg
same,ED50,[5],1.3 mg/kg
same,Activity,[14],inactive
same,Activity,[15],inactive
same,Kb,[16],1.4 nM
same,Kb,[17],0.91 nM
same,ED50,[18],2.6 mg/kg
same,ED50,[19],8.8 mg/kg
same,ED50,[20],1.2 mg/kg
same,ED50,[21],2.7 mg/kg
same,ED50,[22],4.1 mg/kg
same,ED50,[23],2.3 mg/kg
same,ED50,[24],4.7 mg/kg
same,ED50,[25],7.1 mg/kg
same,ED50,[26],> 10 mg/kg
same,ED50,[27],1 mg/kg
same,ED50,[28],1.3 mg/kg
same,ED50,[29],2.7 mg/kg
same,ED50,[30],3.6 mg/kg
same,ED50,[31],9.3 mg/kg
same,ED50,[32],25 mg/kg
COc1cc2c(cc1OC)C1=NO[C@@H](CN3CCN(C/C(C)=C/c4ccc(F)cc4)CC3)[C@@H]1CO2 (stereo in doubt; form 2) [listing 1 of 2 here],Ki,[10],28 nM
same,Ki,[1],21 nM
same,Ki,[2],10 nM
COc1cc2c(cc1OC)C1=NO[C@@H](CN3CCN(C/C(C)=C/c4ccc(F)cc4)CC3)[C@@H]1CO2 (stereo in doubt; form 2) [listing 2 of 2 here],ED50,[4],5 mg/kg
